Experimental findings from patent US10336762B2 (priority 2017, dated 2019) are described below.

The target in experiment [1] is IRAK4 enzyme (Homo sapiens (Human), UniProt Q9NWZ3). Kind of experiment: biochemical. The class given is biochemical. The settings on record: IRAK4 enzyme, TR-FRET (HTRF), 500 μM ATP. (In TR-FRET formats the signal depends on donor and acceptor labels being close together.)
Experiment [2] deals with TNFα. Kind of experiment: cells. It is filed as cell-based, human. As to conditions: Homo sapiens, Monocyte, LPS-stimulated human monocytes, TNFα content; read-out: EC50 TNF.

pEC50, pIC50: −log10 of the molar value.

Chain of IRAK4 enzyme (Q9NWZ3 whole entry): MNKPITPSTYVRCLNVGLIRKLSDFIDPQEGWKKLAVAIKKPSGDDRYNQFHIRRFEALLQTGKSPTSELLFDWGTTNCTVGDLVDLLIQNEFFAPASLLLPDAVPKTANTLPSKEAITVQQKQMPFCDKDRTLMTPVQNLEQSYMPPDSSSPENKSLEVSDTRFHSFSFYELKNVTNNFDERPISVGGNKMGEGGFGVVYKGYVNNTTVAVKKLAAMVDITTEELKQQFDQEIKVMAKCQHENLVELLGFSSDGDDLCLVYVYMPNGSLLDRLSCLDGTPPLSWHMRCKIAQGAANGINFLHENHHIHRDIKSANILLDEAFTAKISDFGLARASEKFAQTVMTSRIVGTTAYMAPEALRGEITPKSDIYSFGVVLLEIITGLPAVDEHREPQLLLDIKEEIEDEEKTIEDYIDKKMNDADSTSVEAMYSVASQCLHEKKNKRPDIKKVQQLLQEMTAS

The term pIC50 denotes the negative decadic logarithm of the IC50, by convention in mol/L. Read a low pIC50 as a high IC50. The pEC50 is the EC50 on a negative log10 scale, so that one unit is a factor of ten. `CC(C)(O)[C@H](F)CNC(=O)c1cnc(-c2ccc3cc(C#N)cnn23)cc1N[C@H]1CC[C@H](c2nncs2)CC1` [Example 642, 4-(((1r,4R)-4-(1,3,4-thiadiazol-2-yl)cyclo-hexyl)amino)-6-(3-cyanopyrrolo[1,2-b]pyridazin-7-yl)-N-((R)-2-fluoro-3-hydroxy-3-methylbutyl)nicotinamide] gave a pIC50 in experiment [1] above 9.00. Further, in experiment [2], the pEC50 was 7.89.
On the same counts, the results for `CC(C)Nc1cc(-c2ccc3cc(C#N)cnn23)ncc1C(=O)NC[C@@H](F)C1(O)CC1` [Example 643, (R)-6-(3-cyanopyrrolo[1,2-b]pyridazin-7-yl)-N-(2-fluoro-2-(1-hydroxycyclo-propyl)ethyl)-4-(isopropyl-amino)nicotinamide] are above 9.00 and 8.10.
On the same counts, the results for `Cc1ncc(C2CCC(Nc3cc(-c4ccc5cc(C#N)cnn45)ncc3C(=O)NC[C@@H](F)C(C)(C)O)CC2)o1` (stereo partly drawn) [Example 644, (R)-6-(3-cyanopyrrolo[1,2-b]pyridazin-7-yl)-N-(2-fluoro-3-hydroxy-3-methylbutyl)-4-((4-(2-methyloxazol-5-yl)cyclo-hexyl)amino)nicotinamide] are 9.00 and 7.44.
The like results for `CC(C)(O)[C@H](F)CNC(=O)c1cnc(-c2ccc3cc(C#N)cnn23)cc1Nc1ccc2c(N)n[nH]c2c1` [Example 647, (R)-4-((3-amino-1H-indazol-6-yl)amino)-6-(3-cyanopyrrolo[1,2-b]pyridazin-7-yl)-N-(2-fluoro-3-hydroxy-3-methyl-butyl)nicotinamide] were, in that order, above 9.00 and 7.32.
In turn, `COCc1ccc(Nc2cc(-c3ccc4cc(C#N)cnn34)ncc2C(=O)NC[C@@H](F)C(C)(C)O)cc1` [Example 648, (R)-6-(3-cyanopyrrolo[1,2-b]pyridazin-7-yl)-N-(2-fluoro-3-hydroxy-3-methylbutyl)-4-((4-(methoxymethyl)phenyl)amino)nicotinamide] gave a pIC50 in experiment [1] of 9.00. In experiment [2], the pEC50 is 7.29.
Compound `CC(C)(O)[C@H](F)CNC(=O)c1cnc(-c2ccc3cc(C#N)cnn23)cc1Nc1ccc(OC2COC2)nc1` [Example 649, (R)-6-(3-cyanopyrrolo[1,2-b]pyridazin-7-yl)-N-(2-fluoro-3-hydroxy-3-methylbutyl)-4-((6-(oxetan-3-yloxy)pyridin-3-yl)amino)nicotinamide] had a negative logarithm of the IC50 (pIC50) in experiment [1] of 7.68. Further, the pEC50 in experiment [2] was below 5.00.
In experiment [1], `CC(C)(O)[C@H](F)CNC(=O)c1cnc(-c2ccc3cc(C#N)cnn23)cc1Nc1ccc2c(c1)CC(=O)N2` [Example 650, (R)-6-(3-cyanopyrrolo[1,2-b]pyridazin-7-yl)-N-(2-fluoro-3-hydroxy-3-methylbutyl)-4-((2-oxo-indolin-5-yl)amino) nicotinamide] gave a pIC50 above 9.00. Moreover, the negative logarithm of the EC50 (pEC50) in experiment [2] is 7.80.
The like results for `CC(C)(O)[C@H](F)CNC(=O)c1cnc(-c2ccc3cc(C#N)cnn23)cc1Nc1ccc2c(c1)OC(F)(F)O2` [Example 651, (R)-6-(3-cyanopyrrolo[1,2-b]pyridazin-7-yl)-4-((2,2-difluorobenzo[d][1,3]dioxol-5-yl)amino)-N-(2-fluoro-3-hydroxy-3-methylbutyl) nicotinamide] were, in that order, 8.30 and 6.73.
Regarding `CN1C(=O)C(C)(C)c2ccc(Nc3cc(-c4ccc5cc(C#N)cnn45)ncc3C(=O)NC[C@@H](F)C(C)(C)O)cc21` [Example 652, (R)-6-(3-cyanopyrrolo[1,2-b]pyridazin-7-yl)-N-(2-fluoro-3-hydroxy-3-methylbutyl)-4-((1,3,3-trimethyl-2-oxoindolin-6-yl)amino)nicotinamide], in experiment [1], the pIC50 was 8.70. Moreover, the pEC50 in experiment [2] is 6.73.
On to `CC1(C)C(=O)Nc2ccc(Nc3cc(-c4ccc5cc(C#N)cnn45)ncc3C(=O)NC[C@@H](F)C(C)(C)O)cc21` [Example 653, (R)-6-(3-cyanopyrrolo[1,2-b]pyridazin-7-yl)-4-((3,3-dimethyl-2-oxoindolin-5-yl)amino)-N-(2-fluoro-3-hydroxy-3-methylbutyl) nicotinamide], for which the negative logarithm of the IC50 (pIC50) in experiment [1] was 8.52. In addition, in experiment [2], the negative-log EC50 (pEC50) was 6.70.
